For 13 compounds, EC (1.5-fold), melting point and maximal fold induction results are on record in US9914722B2, “Compounds for treating spinal muscular atrophy” (PTC Therapeutics Inc., priority 2012, dated 2018).

A value given as a limit tells only on which side of the number the result lay.

Data set [1] has as its system full length SMN2 minigene mRNA containing SMN2 exon 7 (SMN2-A minigene). As to the kind of experiment: SMN2 minigene mRNA splicing RT-qPCR assay in cultured cells. The format is cell-based, human. Particulars: Homo sapiens, HEK293-H; HEK293H cells stably transfected with SMN2-A minigene, 24 hours, 7-point concentration curve; concentration giving 1.5-fold SMN2 full length mRNA vs vehicle; read-out: EC1.5x for production of full length SMN2 mRNA. As for the experimental part:
SMN2 Minigene mRNA Splicing RT-qPCR Assay in Cultured Cells
The reverse transcription-quantitative PCR-based (RT-qPCR) assay is used to quantify the level of the full length SMN2 minigene mRNA containing SMN2 exon 7 in a HEK293H cell line stably transfected with said minigene and treated with a test compound.
Protocol. HEK293H cells stably transfected with the SMN2-A minigene construct described above (10,000 cells/well) are seeded in 200 μL of cell culture medium (DMEM plus 10% FBS, with 200 μg/mL hygromycin) in 96-well flat-bottom plates and the plate is immediately swirled to ensure proper dispersal of cells, forming an even monolayer of cells. Cells are allowed to attach for at least 4-6 hours. Test compounds are serially diluted 3.16-fold in 100% DMSO to generate a 7-point concentration curve. A solution of test compound (1 μL, 200× in DMSO) is added to each cell-containing well and the plate is incubated for 24 hours in a cell culture incubator (37° C., 5% CO2, 100% relative humidity). Two replicates are prepared for each test compound concentration. The cells are then lysed in Cells-To-Ct lysis buffer and the lysate is stored at −80° C.
Primer SMN Forward A (SEQ ID NO. 1) hybridizes to a nucleotide sequence in exon 7 (nucleotide 22 to nucleotide 40), primer SMN Reverse A (SEQ ID NO. 2) hybridizes to a nucleotide sequence in the coding sequence of Firefly luciferase, SMN Probe A (SEQ ID NO. 3) hybridizes to a nucleotide sequence in exon 7 (nucleotide 50 to nucleotide 54) and exon 8 (nucleotide 1 to nucleotide 21). The combination of these three oligonucleotides detects only SMN1 or SMN2 minigenes (RT-qPCR) and will not detect endogenous SMN1 or SMN2 genes.
The SMN forward and reverse primers are used at final concentrations of 0.4 μM. The SMN probe is used at a final concentration of 0.15 μM. The GAPDH primers are used at final concentrations of 0.2 μM and the probe at 0.15 μM.
The SMN2-minigene GAPDH mix (15 μL total volume) is prepared by combining 7.5 μL of 2×RT-PCR buffer, 0.4 μL of 25×RT-PCR enzyme mix, 0.75 μL of 20×GAPDH primer-probe mix, 4.0075 μL of water, 2 μL of 10-fold diluted cell lysate, 0.06 μL of 100 μM SMN forward primer, 0.06 μL of 100 μM SMN reverse primer, and 0.225 μL of 100 μM SMN probe.
PCR is carried out at the following temperatures for the indicated time: Step 1: 48° C. (15 min); Step 2: 95° C. (10 min); Step 3: 95° C. (15 sec); Step 4: 60° C. (1 min); then repeat Steps 3 and 4 for a total of 40 cycles.
Each reaction mixture contains both SMN2-A minigene and GAPDH primers/probe sets (multiplex design), allowing simultaneous measurement of the levels of two transcripts.
Two SMN spliced products are generated from the SMN2 minigene. The first spliced product containing exon 7, corresponding to SMN2 full length mRNA, is referred to herein using the term “SMN2 minigene FL.” The second spliced product lacking exon 7 is referred to herein using the term “SMN2 minigene Δ7.”
The increase of SMN2 minigene FL mRNA relative to that in cells treated with vehicle control is determined from real-time PCR data using a modified ΔΔCt method (as described in Livak and Schmittgen, Methods, 2001, 25:402-8). The amplification efficiency (E) is calculated from the slope of the amplification curve for SMN2 minigene FL and GAPDH mRNA individually. The abundance of SMN2 minigene FL and GAPDH mRNA are then calculated as (1+E)^−Ct, where Ct is the threshold value for each amplicon. The abundance of SMN2 minigene FL is normalized to GAPDH abundance. The normalized SMN2 minigene FL abundance from test compound-treated samples is then divided by normalized SMN2 minigene FL abundance from vehicle-treated cells to determine the level of SMN2 FL mRNA relative to vehicle control. […]
On the technique in general: Quantitative PCR measures a nucleic acid by following its amplification.

The subject of data set [2] is Smn protein. The data set can be described thus: Smn protein assay (Smn HTRF) in cultured cells. The format is cell-based, human. The following applies: Homo sapiens, Fibroblast, GM03813 SMA Type 1 patient fibroblasts, 48 hours, HTRF; for maximal fold induction: 7-point concentration data, relative to vehicle, read-out: maximum fold (Fold) increase of Smn protein; for EC (1.5-fold): concentration producing 1.5 times Smn protein vs DMSO vehicle, read-out: EC1.5x for Smn protein expression. As for the experimental part: Smn Protein Assay in Cultured Cells
The Smn HTRF (homogeneous time resolved fluorescence) assay is used to quantify the level of Smn protein in SMA patient fibroblast cells treated with test compounds.
Protocol. Cells are thawed and cultured in DMEM-10% FBS for 72 hours. Cells are trypsinized, counted and re-suspended to a concentration of 25,000 cells/mL in DMEM-10% FBS. The cell suspension is plated at 5,000 cells per well in a 96 well microtiter plate and incubated for 3 to 5 hours. […] Test compounds are serially diluted 3.16-fold in 100% DMSO to generate a 7-point concentration curve. 1 μL of test compound solution is transferred to cell-containing wells and cells are incubated for 48 hours in a cell culture incubator (37° C., 5% CO2, 100% relateive humidity). Triplicate samples are set up for each test compound concentration. After 48 hours, the supernatant is removed from the wells and 25 μL of the RIPA lysis buffer, containing protease inhibitors, is added to the wells and incubated with shaking at room temperature for 1 hour. 25 μL of the diluent is added and then 35 μL of the resulting lysate is transferred to a 384-well plate, where each well contains 5 μL of the antibody solution (1:100 dilution of anti-SMN d2 and anti-SMN kryptate in SMN reconstitution buffer). The plate is centrifuged for 1 minute to bring the solution to the bottom of the wells, then incubated overnight at room temperature. Fluorescence for each well of the plate at 665 nm and 620 nm is measured on an EnVision multilabel plate reader (Perkin-Elmer).
The normalized fluorescence signal is calculated for each sample, Blank and vehicle control well by dividing the signal at 665 nm by the signal at 620 nm. Normalizing the signal accounts for possible fluorescence quenching due to the matrix effect of the lysate. The AF value (a measurement of Smn protein abundance as a percent value) for each sample well is calculated by subtracting the normalized average fluorescence for the Blank control wells from the normalized fluorescence for each sample well, then dividing this difference by the normalized average fluorescence for the Blank control wells and multiplying the resulting value by 100. The ΔF value for each sample well represents the Smn protein abundance from test compound-treated samples. The ΔF value for each sample well is divided by the ΔF value for the vehicle control wells to calculate the fold increase in Smn protein abundance relative to the vehicle control.
For compounds of Formula (I) or a form thereof disclosed herein, Table 9 provides the EC1.5x for Smn protein expression that was obtained from the 7-point concentration data generated for each test compound according to the procedure of Biological Example 7. The term “EC1.5x for Smn protein expression” is defined as that concentration of test compound that is effective in producing 1.5 times the amount of Smn protein in an SMA patient fibroblast cell compared to the amount produced from the DMSO vehicle control. An EC1.5x for Smn protein expression between >3 μM and ≦10 μM is indicated by one star (*), an EC1.5x between >1 μM and ≦3 μM is indicated by two stars (**), an EC1.5x between >0.3 μM and ≦1 μM is indicated by three stars (***) and an EC1.5x≦0.3 μM is indicated by four stars (****).
For compounds of Formula (I) or a form thereof disclosed herein, Table 10 provides the maximum fold (Fold) increase of Smn protein that was obtained from the 7-point concentration data generated for each test compound according to the procedure of Biological Example 7. A maximum fold increase ≦1.2 is indicated by one star (*), a fold increase between >1.2 and ≦1.35 is indicated by two stars (**), a fold increase between >1.35 and ≦1.5 is indicated by three stars (***), a fold increase between >1.5 and ≦1.65 is indicated by four stars (****) and a fold increase >1.65 is indicated by five stars (*****).
Background: In TR-FRET formats the signal depends on donor and acceptor labels being close together.

Broadly, the melting point is the temperature of the solid-liquid transition. `COc1cc(F)c(-c2cc(=O)c3cc(N4CCNCC4)ccc3o2)cc1OC` [Cpd 45, 2-(2-fluoro-4,5-dimethoxyphenyl)-6-(piperazin-1-yl)-4H-chromen-4-one] came in with a melting point of 130 to 132 °C. For the same compound, the EC (1.5-fold) in data set [1] lay within 1 to 3 µM. For the same compound, the maximal fold induction in data set [2] lay within 1.2 to 1.35.
In the same order, the values of `COc1ccc(-c2cc(=O)c3cc(N4CCCN(C)CC4)ccc3o2)cc1OC` [Cpd 26, 2-(3,4-dimethoxyphenyl)-6-(4-methyl-1,4-diazepan-1-yl)-4H-chromen-4-one] are 106 to 108 °C, 3 to 30 µM and 1.35 to 1.5.
Consider `COc1ccc(-c2cc(=O)c3cc(N4CCN[C@@H](C)C4)ccc3o2)cc1C` [Cpd 52, 2-(4-methoxy-3-methylphenyl)-6-[(3S)-3-methylpiperazin-1-yl]-4H-chromen-4-one], for which the melting point lay within 174 to 176 °C. Further, the EC (1.5-fold) in data set [1] fell in the range of 0.1 to 0.3 µM. In addition, the maximal fold induction in data set [2] lay within 1.35 to 1.5.
In the same order, the values of `COc1ccc(-c2cc(=O)c3cc(N4CCCNCC4)ccc3o2)cc1OC` [Cpd 25, 6-(1,4-diazepan-1-yl)-2-(3,4-dimethoxyphenyl)-4H-chromen-4-one] are 152 to 154 °C, 3 to 30 µM and 1.35 to 1.5.
The corresponding values for `COc1ccc(-c2cc(=O)c3cc(N4CCNCC4)ccc3o2)cc1C(F)(F)F` [Cpd 69, 2-[4-methoxy-3-(trifluoromethyl)phenyl]-6-(piperazin-1-yl)-4H-chromen-4-one] are 128 to 132 °C, 0.3 to 1 µM and 1.35 to 1.5.
In the same order, the values of `C[C@@H]1CN(c2ccc3oc(-c4nc5ccccc5s4)cc(=O)c3c2)CCN1` [Cpd 33, 2-(1,3-benzothiazol-2-yl)-6-[(3R)-3-methylpiperazin-1-yl]-4H-chromen-4-one] are 142 to 144 °C, 1 to 3 µM and 1.2 to 1.35.
`COc1ccc(-c2cc(=O)c3cc(N4CCN[C@H](C)C4)ccc3o2)cc1F` [Cpd 40, 2-(3-fluoro-4-methoxyphenyl)-6-[(3R)-3-methylpiperazin-1-yl]-4H-chromen-4-one] registered a melting point of 110 to 112 °C. For the same compound, the EC (1.5-fold) in data set [1] is 0.1 to 0.3 µM. Moreover, in data set [2], the maximal fold induction lay within 1.35 to 1.5 and the EC (1.5-fold) lay within 1 to 3 µM.
On to `O=c1cc(-c2cc(F)cc(F)c2)oc2ccc(N3CCNCC3)cc12` [Cpd 79, 2-(3,5-difluorophenyl)-6-(piperazin-1-yl)-4H-chromen-4-one], for which the melting point is 180 to 190 °C. Also, in data set [1], the EC (1.5-fold) was no more than 0.1 µM. For the same compound, in data set [2], the maximal fold induction was 1.35 to 1.5 and the EC (1.5-fold) lay within 3 to 10 µM.
In the same order, the values of `O=c1cc(-c2cccc(C(F)(F)F)c2)oc2ccc(N3CCNCC3)cc12` [Cpd 67, 6-(piperazin-1-yl)-2-[3-(trifluoromethyl)phenyl]-4H-chromen-4-one] are 174 to 176 °C, 0.1 to 0.3 µM, 1.5 to 1.65 and 0.3 to 1 µM.
As to `CC(C)N1CCN(c2ccc3oc(-c4cccnc4)cc(=O)c3c2)CC1` [Cpd 4, 6-[4-(propan-2-yl)piperazin-1-yl]-2-(pyridin-3-yl)-4H-chromen-4-one], the melting point is 148 to 150 °C. Further, the EC (1.5-fold) in data set [1] lay within 3 to 30 µM. Besides, the maximal fold induction in data set [2] was no more than 1.2.
In the same order, the values of `COc1ccc(-c2cc(=O)c3cc(N4CCNCC4)ccc3o2)cc1` [Cpd 62, 2-(4-methoxyphenyl)-6-(piperazin-1-yl)-4H-chromen-4-one] are 166 to 170 °C, 0.1 to 0.3 µM and 1.2 to 1.35.
Take `COc1ccc(-c2cc(=O)c3cc(N4CCN(C)CC4)ccc3o2)cc1OC` [Cpd 21, 2-(3,4-dimethoxyphenyl)-6-(4-methylpiperazin-1-yl)-4H-chromen-4-one]: the melting point is 184 to 186 °C. Besides, the EC (1.5-fold) in data set [1] was 0.3 to 1 µM. Moreover, in data set [2], the maximal fold induction was greater than 1.65 and the EC (1.5-fold) is 1 to 3 µM.
`COc1ccc(-c2cc(=O)c3cc(N4CCN[C@@H](C)C4)ccc3o2)cc1` [Cpd 63, 2-(4-methoxyphenyl)-6-[(3S)-3-methylpiperazin-1-yl]-4H-chromen-4-one]: the melting point was in the range of 155 to 160 °C. Besides, the EC (1.5-fold) in data set [1] was in the range of 0.1 to 0.3 µM. Moreover, in data set [2], the maximal fold induction was 1.5 to 1.65 and the EC (1.5-fold) fell in the range of 0.3 to 1 µM.
